Experimental data reported in patent publication US10040781B2, “Tank-binding kinase inhibitor compounds” (Gilead Sciences, Inc., priority 2014, dated 2018).

Tests used:
[1] = biological target: IKKε (Homo sapiens (Human), UniProt Q14164); experiment: IKKε TR-FRET enzymatic assay; type: biochemical; conditions: read-out: IKKe IC50
[2] = biological target: hJAK2 (Homo sapiens (Human), UniProt O60674); experiment: hJAK2 LANCE TR-FRET enzymatic assay; type: biochemical; conditions: read-out: JAK2 IC50
[3] = biological target: TBK1 (Homo sapiens (Human), UniProt Q9UHD2); experiment: TBK1 TR-FRET enzymatic assay;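 also: phosphorylation of a biotinylated Ser/Thr peptide by purified full-length recombinant TBK1, read by TR-FRET after 240 min at 25 °C, IC50 is the geometric mean of at least four runs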
TBK1, sequence (Q9UHD2 whole entry): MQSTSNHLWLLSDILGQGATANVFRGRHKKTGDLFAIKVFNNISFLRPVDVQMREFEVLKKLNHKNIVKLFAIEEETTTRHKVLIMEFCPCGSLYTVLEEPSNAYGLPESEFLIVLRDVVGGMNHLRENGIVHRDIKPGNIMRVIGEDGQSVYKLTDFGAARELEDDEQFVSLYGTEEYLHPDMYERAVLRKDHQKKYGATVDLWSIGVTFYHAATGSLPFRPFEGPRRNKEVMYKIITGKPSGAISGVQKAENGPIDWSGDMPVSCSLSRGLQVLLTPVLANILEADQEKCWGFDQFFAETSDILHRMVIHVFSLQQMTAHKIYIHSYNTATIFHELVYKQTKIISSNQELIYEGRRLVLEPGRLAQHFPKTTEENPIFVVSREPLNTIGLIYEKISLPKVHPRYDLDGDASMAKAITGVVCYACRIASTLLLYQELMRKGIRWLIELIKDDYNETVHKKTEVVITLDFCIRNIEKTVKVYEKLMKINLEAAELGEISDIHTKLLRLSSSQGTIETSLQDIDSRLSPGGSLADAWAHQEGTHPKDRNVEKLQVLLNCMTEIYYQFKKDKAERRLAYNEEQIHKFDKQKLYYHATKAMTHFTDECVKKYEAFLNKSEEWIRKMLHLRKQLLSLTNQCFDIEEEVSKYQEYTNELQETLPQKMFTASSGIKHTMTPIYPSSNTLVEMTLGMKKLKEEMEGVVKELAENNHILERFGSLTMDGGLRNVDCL

hJAK2, sequence (O60674 whole entry): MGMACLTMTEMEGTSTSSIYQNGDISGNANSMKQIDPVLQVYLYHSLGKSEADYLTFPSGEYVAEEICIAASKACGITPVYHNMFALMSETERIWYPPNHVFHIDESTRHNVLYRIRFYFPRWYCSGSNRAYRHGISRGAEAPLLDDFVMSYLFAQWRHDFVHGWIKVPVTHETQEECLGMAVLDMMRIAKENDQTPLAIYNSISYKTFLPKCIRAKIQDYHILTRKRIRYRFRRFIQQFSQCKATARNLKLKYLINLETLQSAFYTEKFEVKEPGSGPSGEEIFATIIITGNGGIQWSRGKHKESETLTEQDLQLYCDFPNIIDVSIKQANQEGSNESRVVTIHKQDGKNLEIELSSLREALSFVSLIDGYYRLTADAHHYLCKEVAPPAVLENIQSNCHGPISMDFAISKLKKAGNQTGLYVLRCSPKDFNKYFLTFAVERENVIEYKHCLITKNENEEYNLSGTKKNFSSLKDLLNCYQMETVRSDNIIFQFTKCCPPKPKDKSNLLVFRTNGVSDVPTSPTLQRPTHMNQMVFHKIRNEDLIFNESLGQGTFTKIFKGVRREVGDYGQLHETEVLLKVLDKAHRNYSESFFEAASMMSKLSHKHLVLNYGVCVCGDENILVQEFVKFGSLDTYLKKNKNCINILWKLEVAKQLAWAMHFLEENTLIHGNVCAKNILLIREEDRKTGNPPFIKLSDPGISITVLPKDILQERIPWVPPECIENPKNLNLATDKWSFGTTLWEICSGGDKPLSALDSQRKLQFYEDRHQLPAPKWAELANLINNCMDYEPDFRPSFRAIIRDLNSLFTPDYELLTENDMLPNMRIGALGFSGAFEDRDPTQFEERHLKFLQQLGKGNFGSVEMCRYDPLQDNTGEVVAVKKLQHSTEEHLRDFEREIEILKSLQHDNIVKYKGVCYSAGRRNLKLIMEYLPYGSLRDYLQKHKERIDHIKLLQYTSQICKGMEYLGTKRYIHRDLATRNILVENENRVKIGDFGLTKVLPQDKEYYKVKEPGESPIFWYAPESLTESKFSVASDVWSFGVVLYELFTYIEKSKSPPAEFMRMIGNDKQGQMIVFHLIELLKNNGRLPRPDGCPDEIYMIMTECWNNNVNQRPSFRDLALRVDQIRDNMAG
IKKε, sequence (Q14164 whole entry): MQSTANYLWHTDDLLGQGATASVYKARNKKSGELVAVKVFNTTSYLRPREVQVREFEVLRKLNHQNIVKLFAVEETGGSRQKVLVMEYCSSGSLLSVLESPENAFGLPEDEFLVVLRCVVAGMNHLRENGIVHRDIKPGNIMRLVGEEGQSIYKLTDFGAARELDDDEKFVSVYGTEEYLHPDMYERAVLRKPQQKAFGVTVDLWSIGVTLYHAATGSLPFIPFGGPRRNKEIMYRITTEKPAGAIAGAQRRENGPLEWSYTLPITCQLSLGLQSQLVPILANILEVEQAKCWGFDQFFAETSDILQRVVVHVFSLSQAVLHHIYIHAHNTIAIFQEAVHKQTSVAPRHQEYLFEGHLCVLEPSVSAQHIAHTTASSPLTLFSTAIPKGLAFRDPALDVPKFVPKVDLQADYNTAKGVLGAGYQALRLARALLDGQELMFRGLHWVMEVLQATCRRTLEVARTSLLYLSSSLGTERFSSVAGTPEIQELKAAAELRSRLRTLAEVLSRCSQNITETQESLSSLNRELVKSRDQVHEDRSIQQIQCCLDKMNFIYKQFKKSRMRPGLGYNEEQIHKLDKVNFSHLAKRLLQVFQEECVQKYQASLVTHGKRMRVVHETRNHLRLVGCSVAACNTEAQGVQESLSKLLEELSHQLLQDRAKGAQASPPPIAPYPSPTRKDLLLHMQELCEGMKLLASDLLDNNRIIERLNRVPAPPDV

With `C[C@H]1C[C@H](Oc2ccc(-c3ncnc(Nc4ccc(N5CCN(C6COC6)CC5)cc4)n3)cc2C#N)[C@H](F)CN1C(=O)CO` [Example 115, 2-(((2S,4S,5R)-5-fluoro-1-(2-hydroxyacetyl)-2-methylpiperidin-4-yl)oxy)-5-(4-((4-(4-(oxetan-3-yl)piperazin-1-yl)phenyl)amino)-1,3,5-triazin-2-yl)benzonitrile] the IC50 [1] was 21 nM, the IC50 [2] was ≥ 1000 nM and the IC50 [3] was 12 nM.
`N#Cc1cc(-c2ncnc(Nc3ccc(N4CCN(C5COC5)CC4)cc3)n2)ccc1O[C@H]1CCN(C(=O)[C@@H]2CCC(=O)N2)CC1(F)F` [Example 116, 2-(((S)-3,3-difluoro-1-((S)-5-oxopyrrolidine-2-carbonyl)piperidin-4-yl)oxy)-5-(4-((4-(4-(oxetan-3-yl)piperazin-1-yl)phenyl)amino)-1,3,5-triazin-2-yl)benzonitrile] gave an IC50 [1] of 1 nM, an IC50 [2] of 146 nM and an IC50 [3] of 2 nM.
`N#Cc1cc(-c2ncnc(Nc3ccc(N4CCN(C5COC5)CC4)cc3)n2)ccc1O[C@H]1CCN(C(=O)[C@@H]2CCCC(=O)N2)C[C@H]1F` [Example 117, 2-(((3R,4S)-3-fluoro-1-((S)-6-oxopiperidine-2-carbonyl)piperidin-4-yl)oxy)-5-(4-((4-(4-(oxetan-3-yl)piperazin-1-yl)phenyl)amino)-1,3,5-triazin-2-yl)benzonitrile] was tested, and the IC50 [1] was 4 nM, the IC50 [2] was 342 nM and the IC50 [3] was 3 nM.
For `N#Cc1cc(-c2ncnc(Nc3ccc(N4CCN(C5COC5)CC4)cc3)n2)ccc1O[C@H]1CCN(C(=O)C2CCS(=O)(=O)N2)C[C@H]1F` (stereo partly drawn) [Example 118, 2-(((3R,4S)-1-(1,1-dioxidoisothiazolidine-3-carbonyl)-3-fluoropiperidin-4-yl)oxy)-5-(4-((4-(4-(oxetan-3-yl)piperazin-1-yl)phenyl)amino)-1,3,5-triazin-2-yl)benzonitrile], the IC50 [1] was 11 nM, the IC50 [2] was 284 nM and the IC50 [3] was 7 nM.
`CN1CCN(C(=O)c2ccc(Nc3ncnc(-c4ccc(O[C@H]5CCN(C(=O)CO)C[C@H]5F)c(C#N)c4)n3)cc2)CC1` [Example 119, 2-(((3R,4S)-3-fluoro-1-(2-hydroxyacetyl)piperidin-4-yl)oxy)-5-(4-((4-(4-methylpiperazine-1-carbonyl)phenyl)amino)-1,3,5-triazin-2-yl)benzonitrile] showed an IC50 [1] of 2 nM, an IC50 [2] of 338 nM and an IC50 [3] of 6 nM.
`C[C@H](O)C(=O)N1CC[C@H](Oc2ccc(-c3ncnc(Nc4ccc(C(=O)N5CCN(C)CC5)cc4)n3)cc2C#N)[C@H](F)C1` [Example 120, 2-(((3R,4S)-3-fluoro-1-((S)-2-hydroxypropanoyl)piperidin-4-yl)oxy)-5-(4-((4-(4-methylpiperazine-1-carbonyl)phenyl)amino)-1,3,5-triazin-2-yl)benzonitrile] gave an IC50 [1] of 2 nM, an IC50 [2] of 674 nM and an IC50 [3] of 4 nM.
For `N#Cc1cc(-c2ncnc(Nc3ccc(N4CCN(C5COC5)CC4)cc3)n2)ccc1NC1CCOCC1` [Example 121, 5-(4-((4-(4-(oxetan-3-yl)piperazin-1-yl)phenyl)amino)-1,3,5-triazin-2-yl)-2-((tetrahydro-2H-pyran-4-yl)amino)benzonitrile], the IC50 [1] was 47 nM, the IC50 [2] was 32 nM and the IC50 [3] was 11 nM.
Work on `COC1CCC(Oc2ccc(-c3ncnc(Nc4ccc(N5CCN(C6COC6)CC5)cc4)n3)cc2C#N)CC1` (stereo not drawn) [Example 122, 2-((4-methoxycyclohexyl)oxy)-5-(4-((4-(4-(oxetan-3-yl)piperazin-1-yl)phenyl)amino)-1,3,5-triazin-2-yl)benzonitrile] yielded an IC50 [1] of 15 nM, an IC50 [2] of 402 nM and an IC50 [3] of 15 nM.
With `C[C@@H](CO)C(=O)N1CC[C@H](Oc2ccc(-c3ncnc(Nc4ccc(N5CCN(C6COC6)CC5)cc4)n3)cc2C#N)[C@H](F)C1` [Example 123, 2-(((3R,4S)-3-fluoro-1-((S)-3-hydroxy-2-methylpropanoyl)piperidin-4-yl)oxy)-5-(4-((4-(4-(oxetan-3-yl)piperazin-1-yl)phenyl)amino)-1,3,5-triazin-2-yl)benzonitrile] the IC50 [1] was 132 nM, the IC50 [2] was 546 nM and the IC50 [3] was 31 nM.
In the case of `C[C@H](CO)C(=O)N1CC[C@H](Oc2ccc(-c3ncnc(Nc4ccc(N5CCN(C6COC6)CC5)cc4)n3)cc2C#N)[C@H](F)C1` [Example 124, 2-(((3R,4S)-3-fluoro-1-((R)-3-hydroxy-2-methylpropanoyl)piperidin-4-yl)oxy)-5-(4-((4-(4-(oxetan-3-yl)piperazin-1-yl)phenyl)amino)-1,3,5-triazin-2-yl)benzonitrile], the IC50 [1] is reported as 54 nM, the IC50 [2] is reported as 676 nM and the IC50 [3] is reported as 15 nM.
Compound `N#Cc1cc(-c2ncnc(Nc3ccc(N4CCN(C5COC5)CC4)cc3)n2)ccc1O[C@@H]1CCCN(C(=O)CO)C1` [Example 125, (R)-2-((1-(2-hydroxyacetyl)piperidin-3-yl)oxy)-5-(4-((4-(4-(oxetan-3-yl)piperazin-1-yl)phenyl)amino)-1,3,5-triazin-2-yl)benzonitrile] has an IC50 [1] of 86 nM, an IC50 [2] of 952 nM and an IC50 [3] of 31 nM.
For `C[C@H](O)C(=O)N1CCC[C@@H](Oc2ccc(-c3ncnc(Nc4ccc(N5CCN(C6COC6)CC5)cc4)n3)cc2C#N)C1` [Example 126, 2-(((R)-1-((S)-2-hydroxypropanoyl)piperidin-3-yl)oxy)-5-(4-((4-(4-(oxetan-3-yl)piperazin-1-yl)phenyl)amino)-1,3,5-triazin-2-yl)benzonitrile], the IC50 [1] was 111 nM, the IC50 [2] was ≥ 1000 nM and the IC50 [3] was 56 nM.
Compound `N#Cc1cc(-c2ncnc(Nc3ccc(N4CCN(C5COC5)CC4)cc3)n2)ccc1O[C@H]1CCCN(C(=O)CO)C1` [Example 127, (S)-2-((1-(2-hydroxyacetyl)piperidin-3-yl)oxy)-5-(4-((4-(4-(oxetan-3-yl)piperazin-1-yl)phenyl)amino)-1,3,5-triazin-2-yl)benzonitrile] has an IC50 [1] of 562 nM, an IC50 [2] of 394 nM and an IC50 [3] of 180 nM.
With `C[C@H](O)C(=O)N1CCC[C@H](Oc2ccc(-c3ncnc(Nc4ccc(N5CCN(C6COC6)CC5)cc4)n3)cc2C#N)C1` [Example 128, 2-(((S)-1-((S)-2-hydroxypropanoyl)piperidin-3-yl)oxy)-5-(4-((4-(4-(oxetan-3-yl)piperazin-1-yl)phenyl)amino)-1,3,5-triazin-2-yl)benzonitrile] the IC50 [1] was 177 nM, the IC50 [2] was 632 nM and the IC50 [3] was 37 nM.
In the case of `N#Cc1cc(-c2ncnc(Nc3ccc(N4CCN(C5COC5)CC4)cc3)n2)ccc1O[C@H]1CCN(C(=O)[C@H]2CCCCN2)C[C@H]1F` [Example 129, 2-(((3R,4S)-3-fluoro-1-((R)-piperidine-2-carbonyl)piperidin-4-yl)oxy)-5-(4-((4-(4-(oxetan-3-yl)piperazin-1-yl)phenyl)amino)-1,3,5-triazin-2-yl)benzonitrile], the IC50 [1] is reported as 619 nM, the IC50 [2] is reported as ≥ 1000 nM and the IC50 [3] is reported as 334 nM.
For `N#Cc1cc(-c2ncnc(Nc3ccc(N4CCN(C5COC5)CC4)cc3)n2)ccc1O[C@H]1CCN(C(=O)[C@H]2CCCN2)C[C@H]1F` [Example 130, 2-(((3R,4S)-3-fluoro-1-((R)-pyrrolidine-2-carbonyl)piperidin-4-yl)oxy)-5-(4-((4-(4-(oxetan-3-yl)piperazin-1-yl)phenyl)amino)-1,3,5-triazin-2-yl)benzonitrile], the IC50 [1] was 73 nM, the IC50 [2] was ≥ 1000 nM and the IC50 [3] was 29 nM.
With `N#Cc1cc(-c2ncnc(Nc3ccc(N4CCN(C5COC5)CC4)cc3)n2)ccc1O[C@H]1CCN(C(=O)[C@@H]2CCCCN2)C[C@H]1F` [Example 131, 2-(((3R,4S)-3-fluoro-1-((S)-piperidine-2-carbonyl)piperidin-4-yl)oxy)-5-(4-((4-(4-(oxetan-3-yl)piperazin-1-yl)phenyl)amino)-1,3,5-triazin-2-yl)benzonitrile] the IC50 [1] was 175 nM, the IC50 [2] was ≥ 1000 nM and the IC50 [3] was 101 nM.
`N#Cc1cc(-c2ncnc(Nc3ccc(N4CCN(C5COC5)CC4)cc3)n2)ccc1O[C@H]1CCN(C(=O)[C@H]2CC(F)(F)CN2)C[C@H]1F` [Example 132, 2-(((3R,4S)-1-((R)-4,4-difluoropyrrolidine-2-carbonyl)-3-fluoropiperidin-4-yl)oxy)-5-(4-((4-(4-(oxetan-3-yl)piperazin-1-yl)phenyl)amino)-1,3,5-triazin-2-yl)benzonitrile] was tested, and the IC50 [1] was 51 nM, the IC50 [2] was ≥ 1000 nM and the IC50 [3] was 25 nM.
In the case of `C[C@H](O)C(=O)N1CCC(Oc2cc(C#N)cc(-c3ncnc(Nc4ccc(N5CCN(C6COC6)CC5)cc4)n3)c2)CC1` [Example 134, (S)-3-((1-(2-hydroxypropanoyl)piperidin-4-yl)oxy)-5-(4-((4-(4-(oxetan-3-yl)piperazin-1-yl)phenyl)amino)-1,3,5-triazin-2-yl)benzonitrile], the IC50 [1] is reported as ≥ 1000 nM, the IC50 [2] is reported as 371 nM and the IC50 [3] is reported as 520 nM.
In the case of `N#Cc1cc(-c2ncnc(Nc3ccc(N4CCN(C5COC5)CC4)cc3)n2)ccc1O[C@H]1CCN(C(=O)c2cn[nH]c2Cl)C[C@H]1F` [Example 136, 2-(((3R,4S)-1-(5-chloro-1H-pyrazole-4-carbonyl)-3-fluoropiperidin-4-yl)oxy)-5-(4-((4-(4-(oxetan-3-yl)piperazin-1-yl)phenyl)amino)-1,3,5-triazin-2-yl)benzonitrile], the IC50 [1] is reported as 73 nM, the IC50 [2] is reported as 167 nM and the IC50 [3] is reported as 46 nM.
Work on `N#Cc1cc(-c2ncnc(Nc3ccc(N4CCN(C5COC5)CC4)cc3)n2)ccc1O[C@H]1CCN(C(=O)c2cc[nH]c(=O)c2)C[C@H]1F` [Example 137, 2-(((3R,4S)-3-fluoro-1-(2-oxo-1,2-dihydropyridine-4-carbonyl)piperidin-4-yl)oxy)-5-(4-((4-(4-(oxetan-3-yl)piperazin-1-yl)phenyl)amino)-1,3,5-triazin-2-yl)benzonitrile] yielded an IC50 [1] of 32 nM, an IC50 [2] of 207 nM and an IC50 [3] of 19 nM.
`N#CCC(=O)N1CC[C@H](Oc2ccc(-c3ncnc(Nc4ccc(N5CCN(C6COC6)CC5)cc4)n3)cc2C#N)[C@H](F)C1` [Example 138, 2-(((3R,4S)-1-(2-cyanoacetyl)-3-fluoropiperidin-4-yl)oxy)-5-(4-((4-(4-(oxetan-3-yl)piperazin-1-yl)phenyl)amino)-1,3,5-triazin-2-yl)benzonitrile] was tested, and the IC50 [1] was 2 nM, the IC50 [2] was 146 nM and the IC50 [3] was 2 nM.
